Laboratory results from ChEMBL document CHEMBL3885861, “Open TG-GATES”.

Species: Rattus norvegicus
Assay: Open TG-GATES - Regimen: Single
Assay type: toxicity, organism-based, Sprague-Dawley
Design: regimen Single, gender Male, age 6 weeks
Conditions: in vivo, po, 600 mg/kg, route gavage, dose level High; for APTT / Bas / Eos / Fbg / Hb / Ht / Lym / MCH / MCHC / MCV / Mono / Neu / PT / Plat / RBC / Ret / WBC: tissue Blood; for KIDNEY_L / KIDNEY_R / KIDNEY_TOTAL: tissue Kidney; for LIVER: tissue Liver; for A/G / ALP / ALT / AST / BUN / CRE / Ca / Cl / DBIL / GLC / IP / K / LDH / Na / PL / RALB / TBIL / TC / TG / TP / gamma-GTP: tissue Plasma

In the case of `C[C@](N)(Cc1ccc(O)c(O)c1)C(=O)O` [METHYLDOPA], the TERMINAL_BW (3 h) is reported as 186.5 g, the APTT (3 h) is reported as 15.6 s and the Bas (3 h) is reported as 0%. It also gave an Eos (3 h) of 0.8%, a Fbg (3 h) of 261.6 mg/dL and a Hb (3 h) of 13.2 g/dL. The Ht (3 h) was 39.8%, the Lym (3 h) was 74.6% and the MCH (3 h) was 22 pg. The MCHC (3 h) was 33.1%, the MCV (3 h) was 66.7 fL and the Mono (3 h) was 3.4%. For the same compound, the Neu (3 h) was 20.8%, the PT (3 h) was 12.2 s and the Plat (3 h) was 112.5 x10_4/uL. The RBC (3 h) was 597.2 x10_4/ul, the Ret (3 h) was 10.6% and the WBC (3 h) was 68.3 x10_2/uL. The KIDNEY_L (3 h) was 0.8 g, the KIDNEY_R (3 h) was 0.8 g and the KIDNEY_TOTAL (3 h) was 1.6 g. The LIVER (3 h) was 7.8 g, the A/G (3 h) was 0.9 and the ALP (3 h) was 1837.6 IU/L. The ALT (3 h) was 55.2 IU/L, the AST (3 h) was 84.4 IU/L and the BUN (3 h) was 9.4 mg/dL. For the same compound, the CRE (3 h) was 0.1 mg/dL, the Ca (3 h) was 11.3 mg/dL and the Cl (3 h) was 108.2 meq/L. The DBIL (3 h) was 0.018 mg/dL, the GLC (3 h) was 204.4 mg/dL and the IP (3 h) was 9.8 mg/dL. The K (3 h) was 4.6 meq/L, the LDH (3 h) was 59.6 IU/L and the Na (3 h) was 143.4 meq/L. For the same compound, the PL (3 h) was 133.6 mg/dL, the RALB (3 h) was 2.5 g/dL and the TBIL (3 h) was 0.054 mg/dL. It also gave a TC (3 h) of 76.6 mg/dL, a TG (3 h) of 70.8 mg/dL and a TP (3 h) of 5.4 g/dL. It also gave a gamma-GTP (3 h) of 1 IU/L, a TERMINAL_BW (6 h) of 187.6 g and an APTT (6 h) of 17.1 s. For the same compound, the Bas (6 h) was 0%, the Eos (6 h) was 0.8% and the Fbg (6 h) was 272.2 mg/dL. For the same compound, the Hb (6 h) was 13.7 g/dL, the Ht (6 h) was 41.1% and the Lym (6 h) was 81%. For the same compound, the MCH (6 h) was 21.7 pg, the MCHC (6 h) was 33.3% and the MCV (6 h) was 65.2 fL. The Mono (6 h) was 2.4%, the Neu (6 h) was 15.4% and the PT (6 h) was 12.3 s. The Plat (6 h) was 136.7 x10_4/uL, the RBC (6 h) was 631 x10_4/ul and the Ret (6 h) was 9.9%. The WBC (6 h) was 49.9 x10_2/uL, the KIDNEY_L (6 h) was 0.8 g and the KIDNEY_R (6 h) was 0.8 g. The KIDNEY_TOTAL (6 h) was 1.7 g, the LIVER (6 h) was 7.7 g and the A/G (6 h) was 0.9. The ALP (6 h) was 1883.6 IU/L, the ALT (6 h) was 52 IU/L and the AST (6 h) was 81 IU/L. It also gave a BUN (6 h) of 6 mg/dL, a CRE (6 h) of 0.1 mg/dL and a Ca (6 h) of 11.7 mg/dL. It also gave a Cl (6 h) of 105.2 meq/L, a DBIL (6 h) of 0.006 mg/dL and a GLC (6 h) of 225.8 mg/dL. The IP (6 h) was 13.1 mg/dL, the K (6 h) was 5.4 meq/L and the LDH (6 h) was 71.8 IU/L. It also gave a Na (6 h) of 144.8 meq/L, a PL (6 h) of 122 mg/dL and an RALB (6 h) of 2.6 g/dL. For the same compound, the TBIL (6 h) was 0.054 mg/dL, the TC (6 h) was 76.6 mg/dL and the TG (6 h) was 38 mg/dL. It also gave a TP (6 h) of 5.6 g/dL, a gamma-GTP (6 h) of 1 IU/L and a TERMINAL_BW (9 h) of 188.2 g. For the same compound, the APTT (9 h) was 17.2 s, the Bas (9 h) was 0% and the Eos (9 h) was 0.4%. For the same compound, the Fbg (9 h) was 262.8 mg/dL, the Hb (9 h) was 13.5 g/dL and the Ht (9 h) was 40.3%. The Lym (9 h) was 79%, the MCH (9 h) was 22.1 pg and the MCHC (9 h) was 33.6%. The MCV (9 h) was 65.8 fL, the Mono (9 h) was 2.6% and the Neu (9 h) was 17.4%. For the same compound, the PT (9 h) was 12.5 s, the Plat (9 h) was 122.5 x10_4/uL and the RBC (9 h) was 614.4 x10_4/ul. The Ret (9 h) was 9.7%, the WBC (9 h) was 52.4 x10_2/uL and the KIDNEY_L (9 h) was 0.8 g. The KIDNEY_R (9 h) was 0.8 g, the KIDNEY_TOTAL (9 h) was 1.6 g and the LIVER (9 h) was 7.3 g. For the same compound, the A/G (9 h) was 0.9, the ALP (9 h) was 1418.8 IU/L and the ALT (9 h) was 46.2 IU/L. The AST (9 h) was 67.8 IU/L, the BUN (9 h) was 6.2 mg/dL and the CRE (9 h) was 0.1 mg/dL. The Ca (9 h) was 11.4 mg/dL, the Cl (9 h) was 105.6 meq/L and the DBIL (9 h) was 0.008 mg/dL. It also gave a GLC (9 h) of 220 mg/dL, an IP (9 h) of 11.8 mg/dL and a K (9 h) of 4.9 meq/L. For the same compound, the LDH (9 h) was 62 IU/L, the Na (9 h) was 144.2 meq/L and the PL (9 h) was 120 mg/dL. For the same compound, the RALB (9 h) was 2.5 g/dL, the TBIL (9 h) was 0.056 mg/dL and the TC (9 h) was 75.4 mg/dL. It also gave a TG (9 h) of 30.8 mg/dL, a TP (9 h) of 5.3 g/dL and a gamma-GTP (9 h) of 1 IU/L. It also gave a TERMINAL_BW (24 h) of 180.6 g, an APTT (24 h) of 16.9 s and a Bas (24 h) of 0%. For the same compound, the Eos (24 h) was 1%, the Fbg (24 h) was 251.2 mg/dL and the Hb (24 h) was 13.4 g/dL. The Ht (24 h) was 39.6%, the Lym (24 h) was 76% and the MCH (24 h) was 21.9 pg. It also gave an MCHC (24 h) of 33.9%, an MCV (24 h) of 64.5 fL and a Mono (24 h) of 3%. The Neu (24 h) was 20%, the PT (24 h) was 12.5 s and the Plat (24 h) was 133.6 x10_4/uL. It also gave an RBC (24 h) of 613.2 x10_4/ul, a Ret (24 h) of 9.5% and a WBC (24 h) of 49.4 x10_2/uL. The KIDNEY_L (24 h) was 0.9 g, the KIDNEY_R (24 h) was 0.9 g and the KIDNEY_TOTAL (24 h) was 1.8 g. The LIVER (24 h) was 7.5 g, the A/G (24 h) was 0.9 and the ALP (24 h) was 1827.4 IU/L. For the same compound, the ALT (24 h) was 50 IU/L, the AST (24 h) was 73.4 IU/L and the BUN (24 h) was 20 mg/dL. It also gave a CRE (24 h) of 0.2 mg/dL, a Ca (24 h) of 11.4 mg/dL and a Cl (24 h) of 108.2 meq/L. It also gave a DBIL (24 h) of 0.02 mg/dL, a GLC (24 h) of 202.2 mg/dL and an IP (24 h) of 8.8 mg/dL. For the same compound, the K (24 h) was 4.8 meq/L, the LDH (24 h) was 63.4 IU/L and the Na (24 h) was 146.2 meq/L. The PL (24 h) was 139.4 mg/dL, the RALB (24 h) was 2.7 g/dL and the TBIL (24 h) was 0.074 mg/dL. For the same compound, the TC (24 h) was 84 mg/dL, the TG (24 h) was 60.6 mg/dL and the TP (24 h) was 5.7 g/dL. For the same compound, the gamma-GTP (24 h) was 1 IU/L.
